Here are results for two compounds from US20090232909A1, “Method for determining physiological effects of hemoglobin” (priority 1999, published 2009).

The target in assay [1] is T1, Hb (Homo sapiens, UniProt P68871+P69905). The following applies: cited from earlier work.
The target in another assay is T2, oxyHb (Homo sapiens, UniProt P68871+P69905).
T2 construct: purchased Apex Bioscience (Research Triangle Park, N.C.)
In words: Nitrosyl content of normoxic oxyHb after exposure to NO, photolysis-chemiluminescence. The class given is biochemical. The method, then: (§1) Nitroso/nitrosyl derivatives of Hb were measured using a photolysis-chemiluminescence technique [6-fold excess HgCl2 over protein was added to displace S-nitrosothiol (SNO) (Stamler, J. S., et al., Science, 276:2034-2037, 1997)]. Samples were kept on ice for a period of 5 minutes to 2 hours before analyses. MetHb was monitored by UV-visible spectroscopy as the difference absorption above the linear baseline (600-700 nm), and EPR (below).
(A) Nitrosyl content of oxyHb (10 mM phosphate 100 μM DTPA, pH 7.4) after exposure to 1.2 μM NO, as measured by photolysis-chemiluminescence (Stamler, J. S., et al., Science, 276:2034-2037, 1997). Nitrosyl yield increases as a function of Hb concentration (P<0.05). Solid symbols, absolute yield of NO bound to Hb (FeNO plus SNO); open symbols, percentage of NO added. Data shown are the average of 7 to 19 experiments±SE. (B) Standard difference spectra of metHb (solid line), deoxyHb (dotted line), and iron nitrosylHb (dashed line) vs. oxyHb. (C) Difference spectra generated from the exposure of NO to normoxic (≈99% oxygen saturation) Hb. NO was added (in 10 aliquots totaling 2.2 μM) to 33 μM Hb in 100 mM phosphate (solid line) or 10 mM phosphate (dotted line) or 10 mM phosphate plus 0.05% borate (dashed line). […] Specifically, spectra in C were fitted, by a least-squares process, to either the simple competition model or the cooperativity model without a mass balance constraint. Cooperativity is present if add increases above that reported in the literature, as a function of oxygen tension.
(A) SOD increases the yield of NO bound to Hb. The experiments in FIG. 3A were repeated in the absence (solid line; 1.2 μM NO) or presence (dashed line; 1.5 μM NO) of 1, 190 units/ml of SOD, which enhances the yield of nitrosyl species to approximately 100% of the NO added. Similar nitrosyl yields were obtained by using stroma-free Hb (25 μM), which is enriched in endogenous SOD (open circle). Data shown are the average of five to nine experiments±SE. (B) EPR spectrum of a DNIC formed by exposure of oxyHb (≈99% sat; 3.93 mM) to NO (36 μM). (C)S-nitrosoHb and iron nitrosylHb formed by exposure of oxyHb (=99% sat., 48 μM) to NO (1.2 μM). SNO (hatched bar) and FeNO (solid bar) were measured by photolysis-chemiluminescence (Stamler, J. S., et al., Science, 276:2034-2037, 1997). Data shown are the average of 12 experiments±SE. (D) Measurement of intraerythrocytic S-nitrosoHb and iron nitrosylHb formed by exposure of oxygenated RBCs (mean [Hb], 25 μM) to 0.3 μM NO. Isolation of Hb and measurements were as previously described (Stamler, J. S., et al., Science, 276:2034-2037, 1997). Data are the mean of 12 experiments±SE.

In assay [2] the target is T1, Hb. In words: metHb production by UV-visible difference spectroscopy after NO addition to variously oxygenated Hb. Type of assay: biochemical. The following applies: 10 mM phosphate. Set-up: purchased Apex Bioscience (Research Triangle Park, N.C.). The method, then:
as §1
The samples used in FIGS. 1A-1D were assayed for metHb production by UV-visible difference spectroscopy. The data are normalized to added [NO]. As in FIGS. 1A-1D: open diamonds, 10 mM phosphate; open circles, 10 mM phosphate plus borate; open squares, 10 mM phosphate plus SOD; filled circles and filled squares, 100 mM phosphate. The dotted (10 mM phosphate) and dashed (100 mM phosphate) lines are calculated by using Eq. 5 and Fe(II)NO yields in FIGS. 1C and 1D, respectively. […] Systematic deviations are most pronounced in low phosphate at high oxygen saturation—i.e., under physiological conditions.

For another assay, the system named is RBC membrane thiols. In words: Alkylation of IOV proteins with 14C-iodoacetamide. The class given is biochemical. The following applies: DIDS-modified vs unmodified IOVs. The text has this:
FIG. 8G is a fluorographic image of proteins on an SDS-polyacrylamide gel following electrophoresis. […] The position of AE1 on the gel, determined by Western blotting, is indicated. (n=3-8 for A-F).
Thus, inhibition of transnitrosylation by DIDS supports the conclusion that AE1 is the principal acceptor of NO groups transferred from SNO-Hb to the RBC membrane.

Entries after “also recorded” stand apart in the source; their conditions may differ.

Regarding `[N]=O` [NO, nitric oxide], on Hb [1], the “rate constant of NO-mediated oxidation of oxyHb to metHb” value was 3.7e+07 M⁻¹ s⁻¹ and the “rate constant of binding of NO to unoccupied hemes in Hb” value was 2.6e+07 M⁻¹ s⁻¹. Also, at oxyHb (1.2 μM NO added to 48 μM oxyHb), the nitrosyl yield entry was “approximately 500 nM” and the “share of nitrosyl yield that is SNO” value is given as “≈ 80%”. Moreover, at oxyHb (1.2 μM NO, ≈99% O2 saturation, 10 mM phosphate), the “nitrosyl yield relative to the [Hb]” value fell in the range of 3 to 0.6%. At oxyHb (1.2 μM NO, ≈99% O2 saturation, 10 mM phosphate, increasing [Hb]), the “maximum yield of nitrosyl species” value is on record as “approximately 50 % of NO added”. In addition, the “nitrosyl yields under normoxic conditions” value on oxyHb (heme vacancies only ≈1%) is reported as ≤ 6 % of Hb. The “shortfall in the Fe(III) and Fe(II)NO products” value on Hb [2] was ≤ 20 % of added [NO]0.
Consider `O=S(=O)(O)c1cc(N=C=S)ccc1C=Cc1ccc(N=C=S)cc1S(=O)(=O)O` [DIDS, 4,4′-diisothiocyanatostilbene-2,2′-disulfonic acid], for which the “direct modification of sulfhydryls” value in the assay with RBC membrane thiols is reported as “did not modify sulfhydryls directly; also recorded: does not directly reduce reactivity”.
